The LD50 is the dose expected to kill half of the subjects tested. Low readings indicate greater toxicity, high ones lower toxicity.

Consider two compounds from patent US5362729A, “Dihydropyridine derivatives useful in antitumor therapy” (Farmitalia Carlo ERBA S.r.l., priority 1991, dated 1994).

Data set [1] can be described thus: orientative acute toxicity after single oral administration to mice. The settings on record: mouse, in vivo, assessed on the seventh day. The protocol:
Mice which had been deprived of food for nine hours were treated orally with single administrations of increasing doses of compounds of the invention, then housed and normally fed. For example the orientative acut toxicity (LD50) of the compound FCE 24265, assessed on the seventh day after treatment, was higher than 800 mg/kg. In view of their low toxicity the compounds of the invention can be safely used in medicine.

Another data set concerns LoVo/DX cells. In words: single-cell plating technique, colony-inhibiting efficacy of Doxorubicin alone or in combination on Doxorubicin-resistant cells. It counts as cell-based, human. Here is the method:
(§1) LoVo and LoVo/DX cells (human colon adenocarcinoma cell lines sensitive and resistant to Doxorubicin, respectively) were maintained at 37° C. in a humidified atmosphere of 5% CO2. Culture medium was Ham's F12 supplemented with 10% foetal calf serum, 1% vitamins (BME vitamin solution 100 X), and 1% glutamine (200 mM). Both cell lines were passaged twice weekly.
(§2) Doxorubicin, from Farmitalia Carlo erba, was dissolved in sterile water, and the concentrations were checked spectro-photometrically. Solutions of the compounds of the invention using ethanol were prepared immediately before use.
(§3) A single-cell plating technique was utilized for measuring the colony-inhibiting efficacy of drugs alone or drug combinations.
(§4) Exponentially growing LoVo and LoVo/DX cells were adjusted to the concentration of 300 cells.ml^-1 and seeded in 36mm Petri dishes (2 ml/dish).
(§5) After 48h incubation, medium was withdrawn and solutions of invention compounds alone, or Doxorubicin alone or solutions of the combination of both compounds, were added. […]
(§6) Survival was determined as the percentage of colonies in treated samples vs untreated ones. For combination of the compounds of the invention and doxorubicin, survival was calculated using as controls the number of colonies in samples treated with compounds of the invention alone.

The next data set relates to LoVo cells. In words: single-cell plating technique, colony-inhibiting efficacy of Doxorubicin alone or in combination on Doxorubicin-sensitive cells. It counts as cell-based, human. The note with it: Doxorubicin alone. Here is the method: as §1, §2, §3, §4, §5, §6

Where two headings read alike, the source gives them in different places.

With `CCOC(=O)C1=C(C)NC(C)=C(C(=O)OCC)C1c1cccc(-n2ccnc2)c1` [FCE 24265, 1,4-Dihydro-2,6-dimethyl-4-[3-(1H-imidazol-1-yl)phenyl]-3,5-pyridinedicarboxylic acid, diethyl ester], the LD50 at 168 h in data set [1] was greater than 800 mg/kg.
For `COc1cccc2c1C(=O)c1c(O)c3c(c(O)c1C2=O)C[C@@](O)(C(=O)CO)C[C@@H]3O[C@H]1C[C@H](N)[C@H](O)[C@H](C)O1` [Doxorubicin], the “R.I. (Resistance Index)” value with LoVo/DX cells (Doxorubicin alone, LoVo/DX vs LoVo cells, 240 min) was found to be 49.1. Moreover, the IC50 was 4.91 µg/mL in the data set on LoVo/DX cells (Homo sapiens, LoVo/DX, 4 h, read-out: IC50 = Concentration inhibiting 50% of colony formation); 0.1 µg/mL with LoVo cells; roughly 0.1 µg/mL in the data set with LoVo cells (Homo sapiens, LoVo, read-out: IC50).
